According to patent US20240358829A1, “Lymphocyte Population and Methods for Producing Same” (AVM Biotechnology, LLC, priority 2021, published 2024):

Key:
A20 B cell lymphoma = tested on: A20 B cell lymphoma
Procedure: FIG. 10B. […] Mice were inoculated with A20 lymphoma 2×10^6 cells in 100 μL of PBS mixed with 100 μL of chilled Matrigel into their flank. Three, 24 and 48 hours later mice were euthanized and tumors, blood, bone marrow and thymus were taken and made into single cell suspensions for flow cytometry detection of live A20 cells.

[1] = tested on: lymphocytes and myeloid cells; test: Humanized mice experiments LYDEP 43 and 45, lymphoid versus myeloid cells (FSC vs SSC); assay type: in vivo, mouse
Procedure: Female huNOG-EXL mice (n=6) were obtained from Taconic Bioscience (Germantown, NY). Female huCD34-NCG mice (n=8) were obtained from Charles River (Wilmington, MA). Mice from both facilities were acclimated to laboratory conditions for at least 5-6 days.
After first (03/01/2021) and second dose 1 week later (03/08/2021), when mice reached predetermined time point, they were bled up to 70 μL of blood/mouse via cheek puncture. The blood was analyzed via flow cytometry. After third dose 28 days after the previous dose (on Apr. 5, 2021), when mice reached the study time point, they were euthanized under standard operating procedure summarized here: Mice were anesthetized with isoflurane gas.
All flow cytometry was performed in house. Blood, spleen, thymus, and bone marrow were processed via standard staining protocol for flow cytometry. MACSQUANT 16 was used for flow cytometry. Antibody panels slightly varied between first, second and third dose. Markers in the flow panel after first dose analysis included Live/Dead, hCD45, mCD45, hCD56, hTCRgd, hCD3, hCD8, hCD16, hCD19, hCD14. Markers in the flow panel after second dose included all the above, plus hTCRab and hiTCR. In the blood analysis after second dose, 7AAD, CD14 and CD19 were included together in a dump channel. […] For the third dose panel design, when full sac was performed, all markers mentioned above were assigned unique channels to avoid overlap, but TCRab was not included in the final panel due to open channel limitations.
For cheek bleeds, 70 ul of blood was collected in EDTA coated microtainer and proceeded for immunostaining. […] Blood was stained for live dead marker for 10 min at Room temperature and then for the surface antibodies mentioned above for 20 minutes at room temperature in dark. RBCs were lysed with BD FACS lysing buffer and washed with DPBS and resuspended in 300 ul DBPS. 250 ul of sample was run on MACSquant 16 flow cytometer.

[2] = mouse M88, after a first dose (32 mg/kg)

SMILES: C[C@@H]1C[C@H]2[C@@H]3CCC4=CC(=O)C=C[C@]4(C)[C@@]3(F)[C@@H](O)C[C@]2(C)[C@@]1(O)C(=O)COP(=O)(O)O [AVM0703, dexamethasone sodium phosphate]
- time of maximal ablation of A20 lymphoma implanted in the flank (A20 B cell lymphoma; 18 mg/kg HED): ~3 h
- Presence of AVM-NKT cells, 48 hrs blood (A20 B cell lymphoma; A20 model): negative
- growth of the A20 B cell lymphoma (A20 B cell lymphoma; HED 18.1 mg/kg PO, repeat dosing, vs placebo): significantly delays growth
- location of AVM-NKT cells (A20 B cell lymphoma; male tumor bearing Balb/c mice): in tumors
- tumor necrosis (A20 B cell lymphoma; study A20-3, dose response curve, 18&26 mg/kg, doses on days 10, 17, 25, 32, 39): 18&26 mg/kg 50-80% necrotic
- % of total mouse WBCs that were lymphoid cells, range ([1]; AVM0703 treated humanized mice): 2%-20.4%
- % of total mouse WBCs that were lymphoid cells, average ([1]; AVM0703 treated humanized mice (Placebo 12.7%)): 10.62%
- myeloid cell production ([1]; humanized mice that largely lack myeloid compartments): induced myeloid cell production
- human lymphocytes, % of total human WBCs ([1]; mouse M01, after a first dose): 67%
- mouse lymphocytes, % of total WBCs ([1]; mouse M01, after a first dose): 6.7%
- total lymphocytes, % of total WBCs ([1]; mouse M01, after a first dose): 35%
- human lymphocytes, % of total human WBCs ([1]; mouse M03, after a first dose): 47%
- mouse lymphocytes, % of total WBCs ([1]; mouse M03, after a first dose): 23.7%
- total lymphocytes, % of total WBCs ([1]; mouse M03, after a first dose): 40%
- human lymphocytes, % of total human WBCs ([1]; mouse M05, after a first dose): 50.1%
- mouse lymphocytes, % of total WBCs ([1]; mouse M05, after a first dose): 2.0%
- total lymphocytes, % of total WBCs ([1]; mouse M05, after a first dose): 20.9%
- human lymphocytes, % of total human WBCs ([1]; mouse M07, after a first dose): 58.2%
- mouse lymphocytes, % of total WBCs ([1]; mouse M07, after a first dose): 20.4%
- total lymphocytes, % of total WBCs ([1]; mouse M07, after a first dose): 41.9%
- human lymphocytes, % of total human WBCs ([1]; mouse M10, after a first dose): 37.5%
- mouse lymphocytes, % of total WBCs ([1]; mouse M10, after a first dose): 5.2%
- total lymphocytes, % of total WBCs ([1]; mouse M10, after a first dose): 28.1%
- human lymphocytes, % of total human WBCs [1, 2]: 58%
- mouse lymphocytes, % of total WBCs [1, 2]: 5.7%
- total lymphocytes, % of total WBCs [1, 2]: 32%
